Results as given in patent US20260098008A1, “COVALENT, CHEMOGENETIC ACTIVATORS FOR K2P POTASSIUM CHANNELS AND USES THEREOF” (THE REGENTS OF THE UNIVERSITY OF CALIFORNIA, priority 2022, published 2026).
Where a chain is given by its changes, count along the chain named.

Legend:
[1] = molecular target: T1, TREK-1^CG* (K2P2.1 (TREK-1) S131C) (Mus musculus, UniProt P97438, S146C); experiment: TEVC in Xenopus oocytes; format: cell-based; conditions: for Fold-activation (I activator/I control) / Reversibility of activation on washout: 20 μM, Xenopus oocytes; for Fold-activation (I activator/I control): 0 mV; for TREK-1 GC activity class: Fold-activation at 20 uM in oocytes
T1 construct: expressed in transfected cells; host or cells: Xenopus laevis oocytes injected with mRNA
T1 sequence (P97438 1-411 isoform P97438-2 S131C): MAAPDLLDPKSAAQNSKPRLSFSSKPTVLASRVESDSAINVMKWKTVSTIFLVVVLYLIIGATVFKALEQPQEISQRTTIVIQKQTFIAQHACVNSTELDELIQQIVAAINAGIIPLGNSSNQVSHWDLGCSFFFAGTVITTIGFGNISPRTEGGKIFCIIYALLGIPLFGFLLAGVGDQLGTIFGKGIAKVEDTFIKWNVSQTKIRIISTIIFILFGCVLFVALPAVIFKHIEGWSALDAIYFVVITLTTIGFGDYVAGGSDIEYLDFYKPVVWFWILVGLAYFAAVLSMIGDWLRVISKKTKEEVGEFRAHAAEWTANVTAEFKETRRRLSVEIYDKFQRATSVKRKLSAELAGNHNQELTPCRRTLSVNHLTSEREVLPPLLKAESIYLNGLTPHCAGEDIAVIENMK
Text: (§1) Mouse K2P2.1 (TREK-1) (Genbank accession number: NP_034737.2), mouse K2P10.1 (TREK-2) (NM_001316665.1), mouse K2P4.1 (TRAAK) (NM_008431.3), human K2P4.1 (TRAAK) (NM_033310.2) and mouse K2P18.1(TRESK) (NM_207261.3) were used for this study. Point mutations were introduced by site-directed mutagenesis using custom primers and confirmed by sequencing before use. For studies using Xenopus oocytes, K2P channels were subcloned into a previously reported pGEMHE/pMO vector (46). For expression in HEK293 cells, mouse K2P2.1 (TREK-1) and mutants were expressed from a previously described pIRES2-EGFP vector in HEK293 cells (46,47). K2P2.1 (TREK-1) tandems were constructed by connecting the open reading frames for the individual subunits with a linker encoding the […] (SEQ ID NO: 19) sequence. Tandems used for HEK293 cells included an N-terminal HA tag ([…] (SEQ ID NO: 20)) on the first subunit.
(§2) Xenopus laevis oocytes were harvested according to UCSF IACUC Protocol AN129690 and digested using collagenase (Worthington Biochemical Corporation, #LS004183, 0.8-1.0 mg/mL) in Ca^21-free ND96 (96 mM NaCl, 2 mM KCl, 3.8 mM MgCl2, 5 mM HEPES pH 7.4) immediately post-harvest, as previously reported (31,33). Oocytes were maintained at 18° C. in ND96 (96 mM NaCl, 2 mM KCl, 1.8 mM CaCl2, 2 mM MgCl2, 5 mM HEPES pH 7.4) supplemented with antibiotics (100 units mL^−1 penicillin, 100 μg mL^−1 streptomycin, 50 μg mL^−1 gentimycin) and used for experiments within one week of harvest.
(§3) Defolliculated stage V-VI oocytes were microinjected with 0.5-36 ng mRNA and currents were recorded within 16-48 h hours of injection.
(§4) For recordings, oocytes were impaled with borosilicate recording microelectrodes (0.4-2.0 MΩ resistance) backfilled with 3 M KCl and were subjected to constant perfusion of ND96 at a rate of 3 ml min^−1. Recording solutions containing K2P activators were prepared immediately prior to use from DMSO stocks (20-100 mM), with final DMSO concentrations of 0.1%. Currents were evoked from a −80 mV holding potential followed by a 300 ms ramp from −150 mV to +50 mV. Data were recorded using a GeneClamp 500B amplifier (MDS Analytical Technologies) controlled by pCLAMP8 software (Molecular Devices), and digitized at 1 kHz using Digidata 1332 Å digitizer (MDS Analytical Technologies). For each recording, control solution (ND96) was perfused over a single oocyte until current was stable before switching to solutions containing the test compounds at various concentrations. Representative traces and dose response plots were generated in GraphPad Prism 9.

K2P2.1 (TREK-1) = molecular target: T2, K2P2.1 (TREK-1) (Mus musculus, UniProt P97438); experiment: Two-electrode voltage clamp (TEVC) in Xenopus oocytes; format: cell-based; conditions: for TREK-1 activity class: Fold-activation at 20 uM in oocytes; for TREK-1 fold-activation: 20 uM, oocytes expressing TREK1
T2 construct: expressed in transfected cells; host or cells: Xenopus laevis oocytes injected with mRNA (pGEMHE/pMO vector)
T2 sequence (P97438 1-411 isoform P97438-2): T1 sequence (P97438 1-411 isoform P97438-2 S131C) with C131S
Text: as §1, §2, §3, §4

## CC1=CC(=O)N(c2ccc(C(=O)NCc3ccc(Cl)cc3Cl)cc2)C1=O [CAT335a]
[1]
  Fold-activation (I activator/I control): 7.4±0.7 fold
  Reversibility of activation on washout: irreversibly activate

## CC1=C(C)C(=O)N(c2ccc(C(=O)NCc3ccc(Cl)cc3Cl)cc2)C1=O [CAT335b]
[1]
  Fold-activation (I activator/I control): 4.9±0.6 fold
  Reversibility of activation on washout: partially reversible with washout
[1]; 1 hour incubation, washout with buffer
  Reversibility of activation after extended incubation: remained reversible

## O=C(NCc1ccc(Cl)cc1Cl)c1ccc(N2C(=O)CCC2=O)cc1 [CAT335c]
K2P2.1 (TREK-1); 20 μM, currents at 0 mV, Xenopus oocytes
  Fold-activation (I activator/I control): 2.09 ± 0.14 fold
[1]
  Fold-activation (I activator/I control): 5.0 ± 0.4 fold
  Reversibility of activation on washout: reversible

## C=CC(=O)Nc1ccc(C(=O)NCc2ccc(Cl)cc2Cl)cc1 [Entry 1]
K2P2.1 (TREK-1)
  TREK-1 activity class: +++ (>5 fold)
[1]
  TREK-1 GC activity class: +++ (>5 fold)

## C#CCNC(=O)CCC(=C)C(=O)Nc1ccc(C(=O)NCc2ccc(Cl)cc2Cl)cc1 [Entry 2]
K2P2.1 (TREK-1)
  TREK-1 activity class: +++ (>5 fold)
[1]
  TREK-1 GC activity class: +++ (>5 fold)

## C=C(CCC(=O)O)C(=O)Nc1ccc(C(=O)NCc2ccc(Cl)cc2Cl)cc1 [Entry 3]
K2P2.1 (TREK-1)
  TREK-1 activity class: ++ (2.5-5 fold)
[1]
  TREK-1 GC activity class: ++ (2.5-5 fold)

## C/C=C/C(=O)Nc1ccc(C(=O)NCc2ccc(Cl)cc2Cl)cc1 [Entry 4]
K2P2.1 (TREK-1)
  TREK-1 fold-activation: 1.2 fold

## C#CCNC(=O)CC(=C)C(=O)Nc1ccc(C(=O)NCc2ccc(Cl)cc2Cl)cc1 [Entry 5]
K2P2.1 (TREK-1)
  TREK-1 fold-activation: 7.0 fold
  TREK-1 activity class: +++ (>5 fold)

## C=C(CC(=O)O)C(=O)Nc1ccc(C(=O)NCc2ccc(Cl)cc2Cl)cc1 [Entry 6]
K2P2.1 (TREK-1)
  TREK-1 fold-activation: 1.7 to 2.5 fold
  TREK-1 activity class: + (1.5-2.5 fold)

## O=C(/C=C/C(F)(F)F)Nc1ccc(C(=O)NCc2ccc(Cl)cc2Cl)cc1 [Entry 7]
K2P2.1 (TREK-1)
  TREK-1 fold-activation: 1.0 fold

## N#CCC(=O)Nc1ccc(C(=O)NCc2ccc(Cl)cc2Cl)cc1 [Entry 8]
K2P2.1 (TREK-1)
  TREK-1 fold-activation: 3.6 fold
  TREK-1 activity class: ++ (2.5-5 fold)

## C#CCN(C(=O)C=C)c1ccc(C(=O)NCc2ccc(Cl)cc2Cl)cc1 [Entry 9]
K2P2.1 (TREK-1)
  TREK-1 fold-activation: 1.0 fold

## C=CC(=O)Nc1cccc(C(=O)NCc2ccc(Cl)cc2Cl)c1 [Entry 10]
K2P2.1 (TREK-1)
  TREK-1 fold-activation: 1.2 fold

## C=CS(=O)(=O)Nc1ccc(C(=O)NCc2ccc(Cl)cc2Cl)cc1 [Entry 11]
K2P2.1 (TREK-1)
  TREK-1 fold-activation: 1.3 fold

## C=C1CC(=O)N(c2ccc(C(=O)NCc3ccc(Cl)cc3Cl)cc2)C1=O [Entry 17]
K2P2.1 (TREK-1)
  TREK-1 activity class: + (1.5-2.5 fold)
[1]
  TREK-1 GC activity class: ++ (2.5-5 fold)

## C#CCNC(=O)CCCC1=CC(=O)N(c2ccc(C(=O)NCc3ccc(Cl)cc3Cl)cc2)C1=O [Entry 18]
[1]
  TREK-1 GC activity class: ++ (2.5-5 fold)

## CCOC(=O)CCCC1=CC(=O)N(c2ccc(C(=O)NCc3ccc(Cl)cc3Cl)cc2)C1=O [Entry 19]
[1]
  TREK-1 GC activity class: ++ (2.5-5 fold)

## O=C(NCc1ccc(Cl)cc1Cl)c1cccc(CB(O)O)c1 [Entry 23]
K2P2.1 (TREK-1)
  TREK-1 fold-activation: 1.0 fold

## O=C(NCc1ccc(Cl)cc1Cl)c1cccc(B(O)O)c1 [Entry 24]
K2P2.1 (TREK-1)
  TREK-1 fold-activation: 1.3 fold
  TREK-1 activity class: + (1.5-2.5 fold)

## O=C(NCc1ccc(Cl)cc1Cl)c1ccc(CB(O)O)cc1 [Entry 25]
K2P2.1 (TREK-1)
  TREK-1 fold-activation: 1.5 fold
  TREK-1 activity class: + (1.5-2.5 fold)

## CC1(C)OB(Cc2ccc(C(=O)NCc3ccc(Cl)cc3Cl)cc2)OC1(C)C [Entry 26]
K2P2.1 (TREK-1)
  TREK-1 fold-activation: 1.6 fold
  TREK-1 activity class: + (1.5-2.5 fold)

## O=C(NCc1ccc(Cl)cc1Cl)c1ccc(NCC2CO2)cc1 (stereo not shown) [Entry 27]
K2P2.1 (TREK-1)
  TREK-1 fold-activation: 2.5 fold
  TREK-1 activity class: ++ (2.5-5 fold)

## O=C(NCc1ccc(Cl)cc1Cl)c1ccc(NC(=O)C(F)(F)F)cc1 [Entry 28]
K2P2.1 (TREK-1)
  TREK-1 fold-activation: 3.3 fold
  TREK-1 activity class: ++ (2.5-5 fold)

## CN(Cc1ccc(Cl)cc1Cl)C(=O)c1ccc(NS(C)(=O)=O)cc1 [Entry 30]
K2P2.1 (TREK-1)
  TREK-1 fold-activation: 1.0 fold

## CC(NC(=O)c1ccc(NC(N)=O)cc1)c1ccc(Cl)cc1Cl (stereo not shown) [Entry 31]
K2P2.1 (TREK-1)
  TREK-1 fold-activation: 1.3 fold

## CC(NC(=O)c1ccc(NS(C)(=O)=O)cc1)c1ccc(Cl)cc1Cl (stereo not shown) [Entry 32]
K2P2.1 (TREK-1)
  TREK-1 fold-activation: 1.2 fold

## CS(=O)(=O)Nc1cccc(C(=O)NCc2ccc(Cl)cc2Cl)c1 [Entry 33]
K2P2.1 (TREK-1)
  TREK-1 fold-activation: 2.2 fold
  TREK-1 activity class: ++ (2.5-5 fold)

## CC(NC(=O)c1ccc(NC(=O)NC(=O)C(Cl)(Cl)Cl)cc1)c1ccc(Cl)cc1Cl (stereo not shown) [Entry 34]
K2P2.1 (TREK-1)
  TREK-1 fold-activation: 1.2 fold

## NC(=O)Nc1ccc(C(=O)NCc2ccc(Cl)cc2Cl)cc1 [Entry 35]
K2P2.1 (TREK-1)
  TREK-1 fold-activation: 6.4 fold
  TREK-1 activity class: +++ (>5 fold)

## CNS(=O)(=O)c1ccc(C(=O)NCc2ccc(Cl)cc2Cl)cc1 [Entry 36]
K2P2.1 (TREK-1)
  TREK-1 fold-activation: 3 fold
  TREK-1 activity class: ++ (2.5-5 fold)

## CNS(=O)(=O)c1ccc(C(=O)NCc2ccc(Cl)c(Cl)c2)cc1 [Entry 37]
K2P2.1 (TREK-1)
  TREK-1 fold-activation: 1.5 fold
  TREK-1 activity class: + (1.5-2.5 fold)

## CS(=O)(=O)Nc1ccc(C(=O)NCc2ccc(Cl)c(Cl)c2)cc1 [Entry 38]
K2P2.1 (TREK-1)
  TREK-1 fold-activation: 4.8 fold
  TREK-1 activity class: +++ (>5 fold)

## CS(=O)(=O)Nc1ccc(C(=O)NCc2ccc(Cl)c(F)c2)cc1 [Entry 39]
K2P2.1 (TREK-1)
  TREK-1 fold-activation: 1.5 fold
  TREK-1 activity class: + (1.5-2.5 fold)

## Cc1cc(Cl)cc(Cl)c1CNC(=O)c1ccc(NS(C)(=O)=O)cc1 [Entry 40]
K2P2.1 (TREK-1)
  TREK-1 fold-activation: 1.1 fold

## CS(=O)(=O)Nc1ccc(C(=O)NCc2ccc(Br)cc2Cl)cc1 [Entry 41]
K2P2.1 (TREK-1)
  TREK-1 fold-activation: 3.3 fold
  TREK-1 activity class: ++ (2.5-5 fold)

## CS(=O)(=O)Nc1ncc(C(=O)NCc2ccc(Cl)cc2Cl)cn1 [Entry 42]
K2P2.1 (TREK-1)
  TREK-1 fold-activation: 1.4 fold
  TREK-1 activity class: + (1.5-2.5 fold)

## CS(=O)(=O)Nc1ccc2c(c1)OCCN(Cc1ccc(Cl)cc1Cl)C2=O [Entry 43]
K2P2.1 (TREK-1)
  TREK-1 fold-activation: 1.6 fold
  TREK-1 activity class: + (1.5-2.5 fold)

## CS(=O)(=O)Nc1ccc2c(c1)CCCN(Cc1ccc(Cl)cc1Cl)C2=O [Entry 44]
K2P2.1 (TREK-1)
  TREK-1 fold-activation: 1.0 fold

## CS(=O)(=O)Nc1ccc2c(c1)CCN(Cc1ccc(Cl)cc1Cl)C2=O [Entry 45]
K2P2.1 (TREK-1)
  TREK-1 fold-activation: 1.1 fold

## O=C(COCCOCCNC(=S)Nc1ccc2c(c1)C(=O)OC21c2ccc(O)cc2Oc2cc(O)ccc21)Nc1ccc(C(=O)NCc2ccc(Cl)cc2Cl)cc1 [Entry 46]
K2P2.1 (TREK-1)
  TREK-1 fold-activation: 4 fold
  TREK-1 activity class: +++ (>5 fold)

## O=C(NCc1ccc(Cl)cc1Cl)c1ccc(N2CCS2(=O)=O)cc1 [Entry 47]
[1]
  TREK-1 GC activity class: + (1.5-2.5 fold)

## O=C(NCc1ccc(Cl)cc1Cl)c1ccc(C(=O)N2CCS2(=O)=O)cc1 [Entry 48]
K2P2.1 (TREK-1)
  TREK-1 activity class: + (1.5-2.5 fold)
[1]
  TREK-1 GC activity class: + (1.5-2.5 fold)
